The source of these data is ChEMBL document CHEMBL3286342, “Design, synthesis, and structure-activity relationships of pyridoquinazolinecarboxamides as RNA polymerase I inhibitors” (J Med Chem, 2014).

One data set has as its system Liver microsome. The data set can be described thus: Half life in human liver microsomes at 1 uM preincubated for 5 mins followed by beta-NADPH addition. The format is ADME. (Liver microsomes are vesicles of endoplasmic reticulum, rich in cytochrome P450 enzymes.)
The subject of data set [1] is U2OS. The data set can be described thus: Cytotoxicity against human U2OS cells assessed as loss of cell viability at 0.5 to 5 uM after 48 hrs by WST-1 assay. Type of data set: functional, cell-based. In general terms: Tetrazolium dyes change colour on reduction, which living cells bring about.
For data set [2], the target named is DNA-directed RNA polymerase I subunit RPA1 (Homo sapiens, UniProt O95602). Conditions: u2os.
Description: Induction of RNA polymerase-1 RPA194 subunit degradation in human U2OS cells after 3 hrs by epifluorescence microscopic analysis
The nature of data set [3]: Inhibition of RNA polymerase-1 in human U2OS cells assessed as decrease in nucleolar localization of nucleolin after 3 hrs by epifluorescence microscopic analysis. The format is cell-based.
For data set [4], the system named is U2OS. Conditions: Homo sapiens, 10 uM.
Description: Inhibition of RNA polymerase-1 in human U2OS cells assessed as effect on nucleolin protein expression at 10 uM after 3 hrs by Western blot analysis
The test system of data set [5] is U2OS. Conditions: Homo sapiens, 0.1 to 1 uM.
Description: Inhibition of RNA polymerase-1 in human U2OS cells assessed as effect on nucleolin protein expression at 0.1 to 1 uM after 3 hrs by Western blot analysis

Calls of active or inactive are those of the source. No cut-off for these calls is given here.

Sequence of DNA-directed RNA polymerase I subunit RPA1 (O95602 whole entry): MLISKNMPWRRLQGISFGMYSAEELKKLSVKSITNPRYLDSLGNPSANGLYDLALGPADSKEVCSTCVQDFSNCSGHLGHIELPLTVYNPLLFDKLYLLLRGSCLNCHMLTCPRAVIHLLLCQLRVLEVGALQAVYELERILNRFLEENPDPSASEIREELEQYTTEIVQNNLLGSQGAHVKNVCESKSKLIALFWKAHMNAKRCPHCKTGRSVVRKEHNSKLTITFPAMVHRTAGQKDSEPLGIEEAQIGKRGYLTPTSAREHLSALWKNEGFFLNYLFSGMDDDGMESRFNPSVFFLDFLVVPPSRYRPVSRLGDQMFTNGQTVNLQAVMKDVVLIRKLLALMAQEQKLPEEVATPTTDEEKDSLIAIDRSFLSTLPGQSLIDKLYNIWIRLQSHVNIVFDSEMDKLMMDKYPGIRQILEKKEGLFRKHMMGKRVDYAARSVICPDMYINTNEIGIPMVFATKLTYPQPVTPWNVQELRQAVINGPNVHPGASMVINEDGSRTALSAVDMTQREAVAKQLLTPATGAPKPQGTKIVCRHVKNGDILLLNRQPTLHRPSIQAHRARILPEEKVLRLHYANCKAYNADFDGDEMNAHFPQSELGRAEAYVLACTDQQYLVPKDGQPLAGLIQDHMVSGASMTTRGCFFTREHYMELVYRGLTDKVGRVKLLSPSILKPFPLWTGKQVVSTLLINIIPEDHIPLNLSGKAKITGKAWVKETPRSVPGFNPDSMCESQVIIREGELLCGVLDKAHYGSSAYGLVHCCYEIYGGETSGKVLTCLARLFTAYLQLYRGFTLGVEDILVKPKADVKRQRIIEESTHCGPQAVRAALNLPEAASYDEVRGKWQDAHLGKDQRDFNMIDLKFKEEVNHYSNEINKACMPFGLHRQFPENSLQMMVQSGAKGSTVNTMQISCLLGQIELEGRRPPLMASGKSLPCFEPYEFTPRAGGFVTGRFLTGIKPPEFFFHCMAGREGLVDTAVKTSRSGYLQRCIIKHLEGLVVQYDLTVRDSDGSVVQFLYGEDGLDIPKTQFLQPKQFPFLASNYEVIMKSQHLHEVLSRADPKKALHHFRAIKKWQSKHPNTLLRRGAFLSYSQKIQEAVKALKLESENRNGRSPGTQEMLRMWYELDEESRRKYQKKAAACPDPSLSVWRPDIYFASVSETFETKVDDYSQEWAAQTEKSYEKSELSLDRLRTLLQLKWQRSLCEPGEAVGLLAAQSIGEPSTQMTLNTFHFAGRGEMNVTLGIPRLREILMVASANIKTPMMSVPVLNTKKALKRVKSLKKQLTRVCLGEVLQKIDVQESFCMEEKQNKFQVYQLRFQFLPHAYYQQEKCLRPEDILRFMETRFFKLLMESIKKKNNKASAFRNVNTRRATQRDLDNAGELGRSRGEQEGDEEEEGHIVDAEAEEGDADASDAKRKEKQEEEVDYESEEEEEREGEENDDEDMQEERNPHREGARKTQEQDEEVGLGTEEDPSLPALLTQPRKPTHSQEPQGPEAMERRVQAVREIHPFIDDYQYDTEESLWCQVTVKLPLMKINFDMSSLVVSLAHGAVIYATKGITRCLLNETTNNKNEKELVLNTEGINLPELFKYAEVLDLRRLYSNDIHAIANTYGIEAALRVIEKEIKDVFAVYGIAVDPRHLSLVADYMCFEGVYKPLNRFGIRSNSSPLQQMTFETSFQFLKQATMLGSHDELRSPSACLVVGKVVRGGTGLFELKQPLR

In the data set on Liver microsome, `O=C(NCCN1CCCC1)c1cccn2c(=O)c3cc4ccccc4cc3nc12` registered a t1/2 of 33 min. Further, the result in the data set on U2OS [1] was Active.

As to `CCN(CC)CCNC(=O)c1cccn2c(=O)c3ccccc3nc12`, the IC50 in data set [2] was found to be 1.35 µM; in data set [3] it was 3.28 µM.

As to `COCCN(C)CCNC(=O)c1cccn2c(=O)c3cc4ccccc4cc3nc12`, in the data set on Liver microsome, the t1/2 worked out at 14 min.

For `CN(C)CCCCNC(=O)c1cccn2c(=O)c3cc4ccccc4cc3nc12`, in the data set with U2OS [1], the result was inactive. Further, the inhibition result with U2OS [4] was “Active”. Moreover, in the data set with U2OS [5], the inhibition entry was “inactive”.

With `CN(C)CCN(C)C(=O)c1cccn2c(=O)c3cc4ccccc4cc3nc12`, in data set [3], the IC50 is over 100 µM. For the same compound, in the data set with U2OS [1], the result was inactive. Further, the inhibition result in the data set with U2OS [4] was “Active”. Moreover, the inhibition entry in the data set with U2OS [5] was “inactive”.

On to `CN(C)CCNC(=O)c1cccn2c(=O)c3cc4ccccc4cc3nc12`, for which the IC50 in data set [3] is 0.07 µM. Besides, the t1/2 in the data set on Liver microsome was found to be 57 min. In the data set on U2OS [1], the result was Active. In addition, the inhibition entry in the data set on U2OS [4] is “Active”. For the same compound, in the data set on U2OS [5], the inhibition result was “inactive”.

In the case of `CN(C)CCNC(=O)c1cccn2c(=O)c3ccccc3nc12`, the IC50 in data set [2] worked out at 2.17 µM; in data set [3] it was 3.17 µM. In the data set on U2OS [1], the result was inactive. For the same compound, the inhibition result with U2OS [4] is “Active”. In the data set with U2OS [5], the inhibition entry is “inactive”.

The compound `CC(CNC(=O)c1cccn2c(=O)c3cc4ccccc4cc3nc12)N(C)C` (stereo not given) came in with a t1/2 with Liver microsome of 43 min. Also, the outcome in the data set with U2OS [1] was Active.

The compound `CN1CCN(CCNC(=O)c2cccn3c(=O)c4cc5ccccc5cc4nc23)CC1` gave a t1/2 in the data set with Liver microsome of 43 min.

The compound `CCN(CC)CCNC(=O)c1cccn2c(=O)c3cc4ccccc4cc3nc12` came in with a t1/2 in the data set with Liver microsome of 21 min.

Turning to `CC(CN(C)C)NC(=O)c1cccn2c(=O)c3cc4ccccc4cc3nc12` (stereo not given), the t1/2 in the data set on Liver microsome was 54 min. For the same compound, the inhibition result with U2OS [4] was “Active”. Further, the inhibition result in the data set with U2OS [5] is “inactive”.

In the data set with Liver microsome, `O=C(NCCN1CCCCC1)c1cccn2c(=O)c3cc4ccccc4cc3nc12` showed a t1/2 of 25 min. Also, the outcome with U2OS [1] was Active. In addition, the inhibition result in the data set with U2OS [4] was “Active”. For the same compound, the inhibition result in the data set with U2OS [5] is “inactive”.

Turning to `O=C(NCCN1CCOCC1)c1cccn2c(=O)c3cc4ccccc4cc3nc12`, in the data set with U2OS [1], the outcome was inactive. In the data set on U2OS [4], the inhibition result was “Active”. Besides, the inhibition entry in the data set with U2OS [5] was “inactive”.

As for `CN(C)CCOC(=O)c1cccn2c(=O)c3cc4ccccc4cc3nc12`, the IC50 in data set [2] came to 50.9 µM; in data set [3] it was 12.3 µM.

For the compound `CCN(CC)C1CCN(C(=O)c2cccn3c(=O)c4cc5ccccc5cc4nc23)C1` (stereo not given), the IC50 in data set [2] is 31.8 µM; in data set [3], 10.6 µM.

Usually IC50 stands for the midpoint of a concentration-inhibition curve.
